Results on ten compounds are retold here after US20060106042A1, “Substituted heterocyclpyrmidines” (priority 2002, published 2006).

Structures are written as SMILES. Like-named read-outs stand apart in the source and are kept apart here.

Data set [1] can be described thus: logP determination by reversed-phase HPLC (EEC Directive 79/831 Annex V.A8). It counts as physicochemical. From the text:
(a) Mobile phases for the determination of the acidic range: 0.1% aqueous phosphoric acid, acetonitrile; linear gradient from 10% acetonitrile to 90% acteonitrile—the corresponding measurement results in Table 1 are marked^a). […]

For data set [2], the system named is Heliothis armigera caterpillars. The data set is described as follows: Heliothis armigera test (soya bean shoots, dip). It is filed as in vivo. The settings on record: 500 ppm, soya bean shoots dipped. On the procedure: (§1) • Solvent: 7 parts by weight of dimethylformamide • Emulsifier: 2 parts by weight of alkylaryl polyglycol ether
(§2) To produce a suitable preparation of active compound, 1 part by weight of active compound is mixed with the stated amounts of solvent and emulsifier, and the concentrate is diluted with emulsifier-containing water to the desired concentration.
Soya bean shoots (Glycine max) are treated by being dipped into the preparation of active compound of the desired concentration and are populated with Heliothis annigera caterpillars while the leaves are still moist.
(§3) After the desired period of time, the kill in % is determined. 100% means that all caterpillars have been killed; 0% means that none of the caterpillars have been killed.

Data set [3] deals with peach aphid (Myzus persicae). The data set is described as follows: Myzus test (cabbage leaves, dip). The settings on record: 500 ppm, cabbage leaves dipped. It counts as in vivo. On the procedure:
as §1, §2
Cabbage leaves (Brassica oleracea) which are heavily infested by the peach aphid (Myzus persicae) are treated by being dipped into the preparation of active compound of the desired concentration.
After the desired period of time, the kill in % is determined. 100% means that all aphids have been killed; 0% means that none of the aphids have been killed.

For data set [4], the system named is larvae of the mustard beetle (Phaedon cochleariae). In words: Phaedon larvae test (cabbage leaves, dip). It is filed as in vivo. The settings on record: 168 h, after 7 d, cabbage leaves dipped, read-out: Kill rate in % after 7 d. On the procedure: as §1
After the desired period of time, the kill in % is determined. 100% means that all beetle larvae have been killed; 0% means that none of the beetle larvae have been killed.

For data set [5], the system named is caterpillars of the diamondback moth (Plutella xylostella). In words: Plutella test (cabbage leaves, dip). It is filed as in vivo. Particulars: 500 ppm, cabbage leaves dipped. The procedure:
as §1, §2
Cabbage leaves (Brassica oleracea) are treated by being dipped into the preparation of active compound of the desired concentration and are populated with caterpillars of the diamondback moth (Plutella xylostella) while the leaves are still moist.
as §3

The subject of data set [6] is greenhouse red spider mite (Tetranychus urticae). In words: Tetranychus test (OP-resistant/dip treatment). It counts as in vivo. Particulars: 168 h, 100 ppm, after 7 d, OP-resistant, bean plants dipped, read-out: Kill rate in % after 7 d. On the procedure: Tetranychus Test (OP-Resistant/Dip Treatment)
as §1
After the desired period of time, the effect in % is determined. 100% means that all spider mites have been killed; 0% means that none of the spider mites have been killed.

In data set [7] the test system is cotton aphid (Aphis gossypii). The data set is described as follows: Aphis gossypii test (cotton leaves, dip). Particulars: 500 ppm, cotton leaves dipped. It is filed as in vivo. The procedure: as §1, §2
Cotton leaves (Gossypium hirsutum) which are heavily infested by the cotton aphid (Aphis gossypii) are treated by being dipped into the preparation of active compound of the desired concentration.
After the desired period of time, the kill in % is determined. 100% means all aphids have been killed; 0% means that none of the aphids have been killed.

Data set [8] has as its system caterpillars of the armyworm (Spodoptera frugiperda). In words: Spodoptera frugiperda test (cabbage leaves, dip). It is filed as in vivo. Particulars: 168 h, after 7 d, cabbage leaves dipped, read-out: Kill rate in % after 7 d. On the procedure: Spodoptera frugiperda Test
as §1, §3

Where [9] appears, read: reversed-phase HPLC column (C18), pH 2.3, read-out: logP (pH 2.3).
The mark [10] stands for this setting: reversed-phase HPLC column (C18); acidic range: 0.1% aqueous phosphoric acid/acetonitrile gradient, C18, 43° C.; read-out: logP a).

On to `FC(F)=CCCSc1nccc(-n2cccn2)n1` [Example 1, 2-[(4,4-difluoro-3-butenyl)-sulfanyl]-4-(pyrazol-1-yl)-pyrimidine], for which the chromatographic logP in data set [1] (setting [9]) is 3.3. The “Kill rate in % after 7 d” value in data set [2] and in data set [5] was 100% in each case. In addition, the “Kill rate in % after 6 d” value in data set [3] was determined as 99%. The pest or weed control at 500 ppm in data set [4] is 100%. Besides, the pest or weed control at 100 ppm in data set [6] worked out at 100%.

`FC(F)=CCCSc1nccc(-c2ccccn2)n1` [Example 2]: the chromatographic logP in data set [1] (setting [9]) was determined as 3.33. The “Kill rate in % after 6 d” value in data set [7] amounted to 99%; in data set [3] it was 100%. Further, the pest or weed control at 500 ppm in data set [4] was found to be 100%.

Consider `FC(F)=CCCSc1nccc(-c2nccc3ccccc23)n1` [Example 7], for which the chromatographic logP in data set [1] (setting [10]) came to 3.67. The “Kill rate in % after 6 d” value in data set [7] was 98%; in data set [3], 100%. Further, the “Kill rate in % after 7 d” value in data set [5] is 100%. Besides, in data set [6], the pest or weed control at 100 ppm worked out at 100%.

As to `COc1ccnc(-c2ccnc(SCCC=C(F)F)n2)c1` [Example 8], the chromatographic logP in data set [1] (setting [10]) was found to be 2.41. The “Kill rate in % after 6 d” value in data set [7] is recorded as 99%; in data set [3] it was 95%.

With `FC(F)=CCCSc1nccc(-c2nccs2)n1` [Example 11], the chromatographic logP in data set [1] (setting [10]) was determined as 3.33. Also, the “Kill rate in % after 6 d” value in data set [3] came to 95%. In addition, in data set [4], the pest or weed control at 500 ppm was found to be 95%.

Regarding `FC(F)=CCCSc1nccc(-c2cnccn2)n1` [Example 14], the chromatographic logP in data set [1] (setting [10]) was determined as 2.91. Also, in data set [3], the “Kill rate in % after 6 d” value is given as 95%. Also, the pest or weed control at 100 ppm in data set [6] came to 100%.

With `FC(F)=CCCSc1nccc(-n2ccnn2)n1` [Example 25], the chromatographic logP in data set [1] (setting [10]) came out at 2.62. For the same compound, the “Kill rate in % after 7 d” value in data set [2] and in data set [5] was 100% each time. Besides, the pest or weed control at 100 ppm in data set [6] was determined as 100%.

For `FC(F)=CCCSc1nccc(-n2nccn2)n1` [Example 26], in data set [1] (setting [10]), the chromatographic logP is 2.7. For the same compound, the “Kill rate in % after 6 d” value in data set [7] was determined as 95%; in data set [3] it was 99%. In data set [8], the pest or weed control at 500 ppm was found to be 100%.

In the case of `COc1cccnc1-c1ccnc(SCCC=C(F)F)n1` [Example 37], in data set [1] (setting [10]), the chromatographic logP came out at 2.14. For the same compound, the “Kill rate in % after 7 d” value in data set [2] and in data set [5] was 100% each time. The pest or weed control at 100 ppm in data set [6] came out at 100%.

Take `Cc1c(-c2ccnc(SCCC=C(F)F)n2)sc2ccccc12` [Example 54]: in data set [1] (setting [10]), the chromatographic logP was found to be 5.25. Moreover, the “Kill rate in % after 7 d” value in data set [5] worked out at 100%. For the same compound, in data set [8], the pest or weed control at 500 ppm stood at 100%. Further, the pest or weed control at 100 ppm in data set [6] is 100%.
